# From patent US20240277713A1 (Kadmon Corporation, LLC, priority 2022, published 2024)
# Assays:
# Sprague-Dawley rats = experiment: Fertility and early embryonic development to implantation study in Sprague-Dawley rats (Example 5)
# Source text: This study design used naive animals of both sexes, incorporated treatment of both sexes, and provided for a recovery period for the treated males based on study outcome.
# Male and female Sprague-Dawley (SD) rats were obtained from Charles River Laboratories, Raleigh, North Carolina (approximately 7 to 10 weeks of age). Using a standard, by weight, randomization procedure, 273 male and 273 female animals (weighing 229 to 497 g and 169 to 242 g, respectively, at randomization) were assigned to control, treatment, and toxicokinetic (TK) groups. The dose volume for each group was 10 mL/kg providing a dose concentration in mg/base/mL of one tenth the dose level). (In Table 24, T=Treated; U=Untreated).
# Dosing began at 11 weeks of age and 70 days prior to pairing (with untreated females) for the treated males, and 14 days prior to pairing (with untreated males) for the treated females. Dosing of the males continued through the mating and postmating period to euthanasia, while dosing of the females continued through the mating period to GD 7. Females with no evidence of mating were dosed for 7 days following completion of the mating period. Males designated for the recovery phase were dosed for 70 days, and then received a 77 day recovery period.
# Animals were observed cageside, for detailed clinical changes, body weights, food consumption, estrous cycle determinations, plasma analysis, sperm analysis, toxicokinetic analysis, and anatomical pathology including uterine and ovarian examinations.
# Cageside observations were made at least twice daily.
# Detailed clinical observations were made during treatment phases: for males, twice weekly during treatment (4 hours+/−1 hour on dosing days), and for females, daily during treatment (4 hours+/−1 hour on dosing days). During non-treatment phases (males and females), detailed clinical observations occurred weekly and also prior to the scheduled uterine examination (females) on GD 13.
# For each endpoint, treatment groups were compared to the control group using the analysis outlined in Table 25. Data for some endpoints, as indicated, were transformed by an arcsin-square root transformation prior to conducting the specified analysis.
# UGT1A1 = target: T1, UGT1A1 (Homo sapiens, UniProt P22309); experiment: Enzyme systems in vitro: UGT1A1; type: in vitro ADME
# T1 sequence (P22309 26-533): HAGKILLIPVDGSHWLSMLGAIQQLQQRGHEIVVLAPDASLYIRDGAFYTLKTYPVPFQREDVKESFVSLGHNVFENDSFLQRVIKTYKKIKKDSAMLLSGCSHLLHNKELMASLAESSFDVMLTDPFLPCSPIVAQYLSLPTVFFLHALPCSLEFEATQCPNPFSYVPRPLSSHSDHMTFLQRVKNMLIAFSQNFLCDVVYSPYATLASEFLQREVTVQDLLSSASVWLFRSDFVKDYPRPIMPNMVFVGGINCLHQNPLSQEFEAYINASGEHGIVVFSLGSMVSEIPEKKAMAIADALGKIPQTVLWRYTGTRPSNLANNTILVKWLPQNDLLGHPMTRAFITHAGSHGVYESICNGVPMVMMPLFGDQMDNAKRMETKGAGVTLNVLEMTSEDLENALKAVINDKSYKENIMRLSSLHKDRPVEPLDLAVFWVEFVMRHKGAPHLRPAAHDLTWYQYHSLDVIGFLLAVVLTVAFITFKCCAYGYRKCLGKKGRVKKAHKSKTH
# rats = experiment: General toxicology studies in rats; type: in vivo, rat
# dogs = experiment: General toxicology studies in dogs; type: in vivo, dog
# P-gp = P-gp (Homo sapiens, UniProt P08183); experiment: Transporter systems in vitro: P-gp; type: in vitro ADME
# Chain of P-gp (P08183 whole entry): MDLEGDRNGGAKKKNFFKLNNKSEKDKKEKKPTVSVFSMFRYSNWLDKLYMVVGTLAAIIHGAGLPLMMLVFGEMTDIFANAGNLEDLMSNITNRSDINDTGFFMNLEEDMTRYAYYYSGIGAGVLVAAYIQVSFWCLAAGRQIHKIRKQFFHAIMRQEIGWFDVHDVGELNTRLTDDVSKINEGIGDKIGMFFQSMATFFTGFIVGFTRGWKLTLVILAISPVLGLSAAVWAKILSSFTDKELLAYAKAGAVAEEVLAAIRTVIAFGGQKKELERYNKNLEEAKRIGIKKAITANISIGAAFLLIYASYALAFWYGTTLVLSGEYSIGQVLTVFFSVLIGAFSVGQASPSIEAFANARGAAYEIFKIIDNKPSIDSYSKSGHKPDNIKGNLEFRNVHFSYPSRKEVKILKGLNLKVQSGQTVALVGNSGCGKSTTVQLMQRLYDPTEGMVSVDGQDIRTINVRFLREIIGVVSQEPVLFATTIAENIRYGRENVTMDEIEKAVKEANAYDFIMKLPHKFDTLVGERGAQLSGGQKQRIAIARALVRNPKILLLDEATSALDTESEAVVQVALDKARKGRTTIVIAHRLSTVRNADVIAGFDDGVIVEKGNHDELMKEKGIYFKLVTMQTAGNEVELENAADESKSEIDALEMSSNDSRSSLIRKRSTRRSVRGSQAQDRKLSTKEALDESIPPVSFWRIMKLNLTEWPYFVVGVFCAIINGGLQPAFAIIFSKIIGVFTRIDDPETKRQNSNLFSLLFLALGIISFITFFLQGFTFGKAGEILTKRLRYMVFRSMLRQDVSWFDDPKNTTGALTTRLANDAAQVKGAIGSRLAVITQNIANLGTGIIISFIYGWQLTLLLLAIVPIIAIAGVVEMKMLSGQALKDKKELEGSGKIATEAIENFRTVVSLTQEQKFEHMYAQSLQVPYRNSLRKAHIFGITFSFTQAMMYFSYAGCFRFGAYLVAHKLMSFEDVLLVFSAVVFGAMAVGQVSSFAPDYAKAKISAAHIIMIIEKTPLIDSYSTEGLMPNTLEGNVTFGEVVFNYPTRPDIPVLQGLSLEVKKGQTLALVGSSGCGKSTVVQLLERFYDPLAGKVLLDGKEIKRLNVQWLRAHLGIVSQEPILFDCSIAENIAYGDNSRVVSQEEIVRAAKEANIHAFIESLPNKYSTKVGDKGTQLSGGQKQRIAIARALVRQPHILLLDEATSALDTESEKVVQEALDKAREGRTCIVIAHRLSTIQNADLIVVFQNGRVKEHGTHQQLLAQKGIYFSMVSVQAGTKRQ
# CYP2C19 = CYP2C19 (Homo sapiens, UniProt P33261); experiment: Enzyme systems in vitro: CYP2C19; type: in vitro ADME
# Chain of CYP2C19 (P33261 whole entry): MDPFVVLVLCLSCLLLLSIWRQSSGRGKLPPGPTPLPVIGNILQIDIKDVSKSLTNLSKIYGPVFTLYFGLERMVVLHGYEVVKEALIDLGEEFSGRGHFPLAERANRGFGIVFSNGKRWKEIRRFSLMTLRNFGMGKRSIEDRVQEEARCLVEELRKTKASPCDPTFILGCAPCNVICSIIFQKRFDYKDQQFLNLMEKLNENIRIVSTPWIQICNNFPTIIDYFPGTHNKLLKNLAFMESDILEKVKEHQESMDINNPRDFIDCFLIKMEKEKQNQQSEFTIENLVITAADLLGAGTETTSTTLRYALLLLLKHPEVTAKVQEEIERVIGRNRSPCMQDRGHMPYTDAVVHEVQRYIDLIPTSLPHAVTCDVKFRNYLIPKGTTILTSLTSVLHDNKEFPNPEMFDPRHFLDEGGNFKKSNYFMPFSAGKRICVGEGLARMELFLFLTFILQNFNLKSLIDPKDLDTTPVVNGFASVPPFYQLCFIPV
# [1] = Toxicokinetics in pregnant Sprague-Dawley rats (Example 1); type: in vivo, rat; conditions: female, Sprague-Dawley, rat, in vivo, po, 25 mg base/kg/day
# [2] = Pharmacokinetics in healthy subjects; type: in vivo, human
# CYP2D6 = CYP2D6 (Homo sapiens, UniProt P10635); experiment: Enzyme systems in vitro: CYP2D6; type: in vitro ADME
# Chain of CYP2D6 (P10635 whole entry): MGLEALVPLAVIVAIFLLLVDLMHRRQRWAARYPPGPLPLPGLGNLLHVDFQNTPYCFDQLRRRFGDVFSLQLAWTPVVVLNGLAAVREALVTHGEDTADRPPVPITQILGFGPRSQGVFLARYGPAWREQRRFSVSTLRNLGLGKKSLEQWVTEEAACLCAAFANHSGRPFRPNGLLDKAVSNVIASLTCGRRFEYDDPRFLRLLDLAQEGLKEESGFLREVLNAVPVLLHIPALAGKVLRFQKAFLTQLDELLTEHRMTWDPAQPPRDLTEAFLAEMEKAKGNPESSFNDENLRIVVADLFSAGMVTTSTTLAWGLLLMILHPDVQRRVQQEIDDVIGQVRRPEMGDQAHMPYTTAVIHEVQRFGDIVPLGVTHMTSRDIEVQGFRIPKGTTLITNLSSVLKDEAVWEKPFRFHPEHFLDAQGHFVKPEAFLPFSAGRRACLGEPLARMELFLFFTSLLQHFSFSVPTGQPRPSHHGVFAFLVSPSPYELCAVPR
# bacterial = experiment: in vitro bacterial mutagenicity (Ames) assay; type: cell-based
# [3] = test system: New Zealand White rabbits; experiment: Pilot prenatal developmental toxicity study in New Zealand White rabbits with non-pregnant dose range finding phase (Example 2)
# Procedure: The study was conducted in two phases: Phase A was a dose range finding tolerance study with non-pregnant rabbits, and Phase B was the pilot developmental toxicity study.
# All fetuses were given the appropriate external examination.
# [4] = Clinical drug interaction studies, effects of other drugs on belumosudil; type: in vivo, human; conditions: healthy subjects
# rat bone marrow = experiment: in vivo rat bone marrow micronucleus assay
# [5] = Toxicokinetic evaluation in pregnant rabbits (Example 4); type: in vivo, rabbit; conditions: for Cmax / AUC(0-t): female, New Zealand White, rabbit, plasma, po; for AUC(0-t): read-out: Mean AUC0-24 in plasma of pregnant rabbits
# Procedure: The dose levels for the treated groups were 50, 125, 225, mg base/kg/day at a dose volume of 10 mL/kg. The control group received the vehicle in the same manner as the treated groups. […] Individual doses were based on the most recent body weights.
# Observations of the animals included clinical signs, body weights, food consumption, and anatomical pathology including a uterine examination. […] All fetuses were given an external, visceral, and skeletal examination.
# [6] = single oral dose of radiolabeled belumosudil
# [7] = coadministration of rabeprazole
# [8] = 50 mg base/kg, GD 18, belumosudil 50 mg base/kg oral
# [9] = 50 mg/kg/day, GD 6, belumosudil 50 mg base/kg oral
# [10] = 125 mg/kg/day, GD 6, belumosudil 125 mg base/kg oral
# [11] = 125 mg/kg/day, GD 18, belumosudil 125 mg base/kg oral
# [12] = 225 mg/kg/day, GD 6, belumosudil 225 mg base/kg oral
# [13] = 225 mg/kg/day, GD 18, belumosudil 225 mg base/kg oral
smiles,measurement,setting,value
"CC(C)NC(=O)COc1cccc(-c2nc(Nc3ccc4[nH]ncc4c3)c3ccccc3n2)c1 [belumosudil, 2-{3-[4-(1H-indazol-5-ylamino)-2-quinazolinyl]phenoxy}-N-(propan-2-yl) acetamide]",NOAEL for female reproductive performance and fertility,Sprague-Dawley rats; female rats,275 mg base/kg/day
same,"dose with adverse findings in female rats (increased pre- or post-implantation loss, decreased number of viable embryos)","Sprague-Dawley rats; female, Sprague-Dawley, rat, in vivo",275 mg/kg/day
same,NOAEL for general toxicity endpoints,Sprague-Dawley rats; male and female rats,50 mg base/kg/day
same,NOAEL for male reproductive performance and fertility,Sprague-Dawley rats; male rats,150 mg base/kg/day
same,dose in male rats with abnormal sperm findings and testes/epididymis organ changes,"Sprague-Dawley rats; male, Sprague-Dawley, rat, in vivo, po",275 mg/kg/day
same,"reproductive and fertility indices, treated females","Sprague-Dawley rats; rat, in vivo",unaffected
same,NOAEL for ovarian and uterine parameters,Sprague-Dawley rats; treated females,150 mg base/kg/day
same,UGT1A1 inhibition,UGT1A1,inhibitor
same,dose with decreased follicular development in ovaries,rats,275 mg/kg/day
same,dose with spermatozoa degeneration,dogs,35 mg/kg/day
same,P-gp substrate status,P-gp,substrate of P-gp
same,P-gp inhibition,P-gp; clinically relevant concentrations,inhibits
same,CYP2C19 inhibition,CYP2C19,inhibitor
same,AUC(0-t),[1]; read-out: maternal AUC0-24,20400 ng·h/mL
same,Cmax,[1]; read-out: maternal Cmax,1800 ng/mL
same,Tmax,"[2]; human, in vivo, oral, single dose, read-out: delay of median Tmax with high-fat and high-calorie meal",30 min
same,Vd,"[2]; human, in vivo, single dose, geo CV % 67.7%, read-out: geometric mean volume of distribution",184 L
same,increase in AUC with high-fat and high-calorie meal compared to fasted state,[2]; single dose,2 times
same,increase in Cmax with high-fat and high-calorie meal compared to fasted state,[2]; single dose,2.2 times
same,mean (% CV) bioavailability,[2]; single dose,64% (17%)
same,radioactivity recovered in feces,[2]; [6],85%
same,radioactivity recovered in urine,[2]; [6],less than 5%
same,recovered in feces as unchanged,[2]; [6],30%
same,CYP2D6 inhibition,CYP2D6,inhibitor
same,"genotoxicity, bacterial mutagenicity (Ames) assay",bacterial,not genotoxic
same,maternal toxicity,"[3]; 25 or 50 mg base/kg/day, GD 6-18",no toxicologically relevant maternal toxicity was observed
same,maternal response,"[3]; 100 and 250 mg base/kg/day, dose-dependent","reduced body weight gain/loss, decreased food consumption, clinical signs"
same,treatment-related effects,"[3]; Phase A, 300 and 400 mg base/kg/day",slight body weight losses and decreased food consumption
same,embryo or fetal toxicity,"[3]; Phase B, any dose level (25-250 mg base/kg/day)",no treatment-related embryo or fetal toxicity was apparent
same,NOAEL for developmental toxicity,[3]; pregnant rabbits,250 mg base/kg/day
same,NOAEL for maternal toxicity,[3]; pregnant rabbits,50 mg base/kg/day
same,survival,"[3]; rabbit, in vivo",not affected
same,effect on belumosudil exposure,[4]; coadministered with itraconazole,no clinically meaningful effect
same,decrease in belumosudil AUC,[4]; coadministration of omeprazole,47%
same,decrease in belumosudil Cmax,[4]; coadministration of omeprazole,68%
same,decrease in belumosudil AUC,[4]; [7],80%
same,decrease in belumosudil Cmax,[4]; [7],87%
same,decrease in belumosudil AUC,[4]; coadministration of rifampin,72%
same,decrease in belumosudil Cmax,[4]; coadministration of rifampin,59%
same,"genotoxicity, bone marrow micronucleus assay",rat bone marrow,not genotoxic
same,Cmax,[5]; [8],437 ng/mL
same,AUC(0-t),[5]; [8],1590 ng·h/mL
same,Cmax,[5]; [9],919 ng/mL
same,AUC(0-t),[5]; [9],3870 ng·h/mL
same,Cmax,[5]; [10],3030 ng/mL
same,AUC(0-t),[5]; [10],21400 ng·h/mL
same,Cmax,[5]; [11],1670 ng/mL
same,AUC(0-t),[5]; [11],9290 ng·h/mL
same,Cmax,[5]; [12],4140 ng/mL
same,AUC(0-t),[5]; [12],55700 ng·h/mL
same,Cmax,[5]; [13],2580 ng/mL
same,AUC(0-t),[5]; [13],23500 ng·h/mL
same,accumulation after multiple dosing of belumosudil,[5]; pregnant rabbits,no apparent accumulation
